{"source": "patent EP4603105A1", "about": "“PHARMACEUTICAL COMPOSITION CONTAINING CYCLIC COMPOUND HAVING SELECTIVE KRAS INHIBITORY EFFECT AGAINST HRAS AND NRAS” (CHUGAI SEIYAKU KABUSHIKI KAISHA, priority 2022, dated 2024)", "key": {"[1]": {"molecular_target": "GDP-bound NRAS wild-type protein (Homo sapiens, UniProt P01111)", "sequence (P01111 whole entry)": "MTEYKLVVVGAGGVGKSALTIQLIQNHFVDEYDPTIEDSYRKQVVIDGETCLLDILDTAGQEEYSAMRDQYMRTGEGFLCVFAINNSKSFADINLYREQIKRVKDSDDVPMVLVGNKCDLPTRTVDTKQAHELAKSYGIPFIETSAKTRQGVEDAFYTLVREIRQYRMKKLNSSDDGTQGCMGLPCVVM", "assay": "Binding to NRAS by surface plasmon resonance (SPR), KD and KD ratio to KRAS", "how_it_was_run": "(§1)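 Single-cycle kinetics on GDP-loaded biotin-Avi RAS captured to ~100–300 RU; 75 s ascending injections, 100 µL/min, 30°C. HBS pH 7.4 + 10 mM MgCl2/10 µM GDP/4% DMSO. 1:1 fit, KD.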"}, "[2]": {"system": "human lung cancer strain NCI-H441", "assay_type": "cell-based", "how_it_was_run": "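Proliferation was scored by […] measured after the reagent was added to cultures kept at 37°C in 5% carbon dioxide.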"}, "HRAS wild-type protein": {"molecular_target": "HRAS wild-type protein (Homo sapiens, UniProt P01112)", "sequence (P01112 whole entry)": "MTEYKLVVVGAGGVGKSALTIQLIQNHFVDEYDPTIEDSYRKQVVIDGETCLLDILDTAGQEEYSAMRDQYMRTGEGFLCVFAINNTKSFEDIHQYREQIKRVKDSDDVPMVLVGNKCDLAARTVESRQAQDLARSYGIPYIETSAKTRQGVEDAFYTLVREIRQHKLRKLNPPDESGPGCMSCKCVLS", "assay": "Binding to HRAS by surface plasmon resonance (SPR), KD and KD ratio to KRAS", "how_it_was_run": "as §1"}, "[3]": {"settings": "ratio of the KD value with respect to GDP-bound NRAS wild-type protein to the KD value with respect to KRAS"}, "[4]": {"settings": "ratio of the KD value with respect to HRAS wild-type protein to the KD value with respect to KRAS"}, "[5]": {"settings": "ratio of KD for GDP-bound NRAS wild-type protein to KD for KRAS"}, "[6]": {"settings": "ratio of KD for HRAS wild-type protein to KD for KRAS"}}, "note": "*1 amine or outer side, *2 acyl side, *3 side chain or, on linkers, in order; H or OH if unused. Where a SMILES comes first, the peptide text is derived from it. Bridges are numbered along the chain shown (N, C = ends). [ ]: non-standard residue; d: D form. The star is where a group is joined. hPhe(3-Cl-4-CF3) = N[C@@H](CCc1ccc(C(F)(F)F)c(Cl)c1)C(=O)O; NPrPhe(4-CF3) = CCCN[C@@H](Cc1ccc(C(F)(F)F)cc1)C(=O)O; X14 = COCCN([C@@H](Cc1ccc(C)cc1)C(=O)[*:2])[*:1]; NMeGly(cPent) = CN[C@H](C(=O)O)C1CCCC1; Pro(4,4-F2) = O=C(O)[C@@H]1CC(F)(F)CN1; NMeD = CN[C@@H](CC(=O)O)C(=O)O; NMeL = CN[C@@H](CC(C)C)C(=O)O; Morpholide = C1CN(*)CCO1; NMeA = CN[C@@H](C)C(=O)O; Ac5c = NC1(C(=O)O)CCCC1; Aze = O=C(O)[C@@H]1CCN1; Ac4c = NC1(C(=O)O)CCC1; NEtG = CCNCC(=O)O; Sar = CNCC(=O)O", "data": [{"compound": "CCCN1C(=O)CN(C)C(=O)CN(CC)C(=O)[C@H]([C@@H](C)CC)NC(=O)[C@H](CC(C)C)N(C)C(=O)C[C@@H](C(=O)N(C)C)N(C)C(=O)[C@H](C2CCCC2)N(C)C(=O)C2(CCC2)NC(=O)[C@@H]2CC(F)(F)CN2C(=O)[C@H](CCc2ccc(C(F)(F)F)c(Cl)c2)NC(=O)CN(C)C(=O)[C@@H]1Cc1ccc(C(F)(F)F)cc1", "note": "[PP0426] ([NMeL]I[NEtG][Sar][NPrPhe(4-CF3)][Sar][hPhe(3-Cl-4-CF3)][Pro(4,4-F2)][Ac4c][NMeGly(cPent)][NMeD]-NMe2; lactam N-11)", "values": [{"measurement": "NRAS /KRAS", "setting": "[1]; [3]", "result": "C (A compound having a KD ratio of 0.1 or more and less than 3 is denoted as C)"}, {"measurement": "IC50", "setting": "[2]", "result": 4.8, "unit": "nM"}, {"measurement": "HRAS /KRAS", "setting": "HRAS wild-type protein; [4]", "result": "C (A compound having a KD ratio of 0.1 or more and less than 3 is denoted as C)"}]}, {"compound": "CCO[C@@H]1C[C@H]2C(=O)NC3(CCC3)C(=O)N(C)[C@@H](C3CCCC3)C(=O)N(C)[C@H](C(=O)N3CCOCC3)CC(=O)N(C)[C@@H](Cc3ccccc3F)C(=O)N[C@@H]([C@@H](C)CC)C(=O)N(C)CC(=O)N(C)[C@H]3CCCCCN(C3=O)[C@@H](Cc3ccc(C(F)(F)F)cc3)C(=O)N(C)CC(=O)N[C@@H](CCc3cc(F)c(C(F)(F)F)c(F)c3)C(=O)N2C1", "note": "[PP0926]", "values": [{"measurement": "NRAS /KRAS", "setting": "[1]; [5]", "result": "B (a compound having 3 or more and less than 10 is denoted as B)"}, {"measurement": "IC50", "setting": "[2]", "result": 113, "unit": "nM"}, {"measurement": "HRAS /KRAS", "setting": "HRAS wild-type protein; [6]", "result": "B (a compound having 3 or more and less than 10 is denoted as B)"}]}, {"compound": "CC[C@H](C)[C@@H]1NC(=O)[C@H](CC(C)C)N(C)C(=O)C[C@@H](C(=O)N2CCOCC2)N(C)C(=O)[C@H](C2CCCC2)N(C)C(=O)C2(CCCC2)NC(=O)[C@@H]2CCCN2C(=O)[C@H](CCc2ccc(C(F)(F)F)c(Cl)c2)NC(=O)CN(C)C(=O)[C@H](Cc2ccc(C)cc2)N(CCOC)C(=O)[C@@H]2CCN2C(=O)[C@H](C)N(C)C1=O", "note": "[PP0092] ([NMeL]I[NMeA][Aze][X14][Sar][hPhe(3-Cl-4-CF3)]P[Ac5c][NMeGly(cPent)][NMeD]-Morpholide; lactam N-11)", "values": [{"measurement": "NRAS /KRAS", "setting": "[1]; [5]", "result": "C (A compound having a KD ratio of 0.1 or more and less than 3 is denoted as C)"}, {"measurement": "IC50", "setting": "[2]", "result": 3.7, "unit": "nM"}, {"measurement": "HRAS /KRAS", "setting": "HRAS wild-type protein; [6]", "result": "C (A compound having a KD ratio of 0.1 or more and less than 3 is denoted as C)"}]}, {"compound": "CC[C@H](C)[C@@H]1NC(=O)[C@H](CC(F)F)N(C)C(=O)C[C@@H](C(=O)N(C)C)N(C)C(=O)[C@H](C2CCCC2)N(C)C(=O)C2(CC(C)(C)C2)NC(=O)[C@@H]2CC(F)(F)CN2C(=O)[C@H](CCc2cc(F)c(C(F)(F)F)c(F)c2)NC(=O)CN(C)C(=O)[C@H](Cc2ccc(C(F)(F)F)cc2)N2CC/C=C\\C[C@@H](C2=O)N(C)C(=O)CN(C)C1=O", "note": "[PP1709]", "values": [{"measurement": "NRAS /KRAS", "setting": "[1]; ratio of KD value for GDP-bound NRAS wild-type protein to KD value for KRAS (SPR)", "result": "A (a compound having 10 or more and less than 20 is denoted as A)"}, {"measurement": "IC50", "setting": "[2]", "result": 3.8, "unit": "nM"}, {"measurement": "HRAS /KRAS", "setting": "HRAS wild-type protein; ratio of KD value for HRAS wild-type protein to KD value for KRAS (SPR)", "result": "A (a compound having 10 or more and less than 20 is denoted as A)"}]}, {"compound": "CC[C@H](C)[C@@H]1NC(=O)[C@H](C(C)C)N(C)C(=O)C[C@@H](C(=O)N(C)CC)N(C)C(=O)[C@H](C2CCCC2)N(C)C(=O)C2(CCC2)NC(=O)[C@@H]2C[C@H](C)CN2C(=O)[C@H](CCc2ccc(C(F)(F)F)c(OC)c2)NC(=O)CN(C)C(=O)[C@H](Cc2ccc(C(F)(F)F)cc2)N2CC/C=C\\C[C@@H](C2=O)N(C)C(=O)CN(C)C1=O", "note": "[PP2065]", "values": [{"measurement": "NRAS /KRAS", "setting": "[1]; [3]", "result": "A (a compound having 10 or more and less than 20 is denoted as A)"}, {"measurement": "IC50", "setting": "[2]", "result": 17, "unit": "nM"}, {"measurement": "HRAS /KRAS", "setting": "HRAS wild-type protein; [4]", "result": "B (a compound having 3 or more and less than 10 is denoted as B)"}]}, {"compound": "CCC[C@H]1C(=O)N[C@@H]([C@@H](C)CC)C(=O)N[C@@H](C)C(=O)N(C)[C@H]2C/C=C\\CCN(C2=O)[C@@H](Cc2ccc(C(F)(F)F)cc2)C(=O)N(C)CC(=O)N[C@@H](CCc2cc(F)c(C(F)(F)F)c(F)c2)C(=O)N2C[C@H](OCC)C[C@H]2C(=O)NC2(CC(C)(C)C2)C(=O)N(C)[C@@H](C2CCCC2)C(=O)N(C)[C@H](C(=O)N(C)C)CC(=O)N1C", "note": "[PP1927]", "values": [{"measurement": "NRAS /KRAS", "setting": "[1]; [3]", "result": "A (a compound having 10 or more and less than 20 is denoted as A)"}, {"measurement": "IC50", "setting": "[2]", "result": 23.5, "unit": "nM"}, {"measurement": "HRAS /KRAS", "setting": "HRAS wild-type protein; [4]", "result": "A (a compound having 10 or more and less than 20 is denoted as A)"}]}]}
